Data published in ChEMBL document CHEMBL1141360, “Kadsuralignans H-K from Kadsura coccinea and their nitric oxide production inhibitory effects” (J Nat Prod, 2007).
Active and inactive are the calls of the source. The calls are words filed in the database; no cut-off is given here.

Columns and labels:
RAW264.7 [1] = assay: Inhibition of LPS and INF-gamma-induced nitric oxide production in mouse RAW264.7 cells after 16 hrs; settings: for IC50: RAW264.7, 16 h
RAW264.7 [2] = assay: Inhibition of LPS-induced nitric oxide production in mouse RAW264.7 cells; assay type: functional, cell-based

IC50 (RAW264.7 [1]) [µM] | Compound | Activity (RAW264.7 [1]) | IC50 (RAW264.7 [2]) [µM]
 | COC1=C(OC)[C@]23COc4c5c(cc(c42)[C@H](OC(=O)c2ccccc2)[C@H](C)[C@](C)(O)[C@@H](OC(C)=O)C3=CC1=O)OCO5 | inactive | 
33.5 | CCC(C)C(=O)Oc1c(OC)c(OC)cc2c1-c1c(cc3c(c1OC)OCO3)[C@H](O)[C@H](C)[C@H](C)C2 (stereo partly drawn) [KADSURALIGNAN J] |  | 
 | C/C=C(/C)C(=O)O[C@H]1C2=CC(=O)C(OC)=C(OC)[C@@]23COc2c4c(cc(c23)[C@H](OC(C)=O)[C@H](C)[C@]1(C)O)OCO4 | inactive | 
87.2 | C/C=C(\C)C(=O)Oc1c(OC)c(OC)cc2c1-c1c(cc3c(c1OC)OCO3)[C@H](O)[C@H](C)[C@H](C)C2 [KADSURALIGNAN I] |  | 
 | COc1cc2c(c(OC(=O)c3ccccc3)c1OC)-c1c(cc3c(c1OC)OCO3)[C@H](O)[C@H](C)[C@H](C)C2 | inactive | 
19.6 | COc1cc([C@@H]2c3c(cc(OC)c(OC)c3O)C[C@@H](C)[C@H]2C)cc2c1OCO2 [KADSURALIGNAN H] |  | 

Compound | IC50 (RAW264.7 [1]) [µM] | Activity (RAW264.7 [1]) | IC50 (RAW264.7 [2]) [µM]
O=c1c(O)c(-c2ccc(O)c(O)c2)oc2cc(O)cc(O)c12 [QUERCETIN] | 25 |  | 26.8
